For data set [1] the following is noted: J. Med. Chem. 2014, 57, 6594-6609; cited from earlier work.
The subject of the next data set is A2780. Put plainly: CellTiter-Glo cell proliferation inhibition, A2780. The class given is cell-based. As to conditions: A2780 (human ovarian cancer cell line), 72 hours; read-out: Example IC50 (µM) A2780. The text has this:
(§1) This experiment used the CellTiter-Glo® Luminescent Cell Viability Assay kit from Promega to evaluate the inhibitory activity of the disclosed compounds on the proliferation of the following cell lines: 4T1 (mouse breast cancer cell line), A20 (mouse B-cell lymphoma cell line), A2780 (human ovarian cancer cell line), AsPC-1 (pancreatic cancer cell line), B16F10 (mouse melanoma cell line), BT549 (human breast cancer cell line), CT26 (mouse colon cancer cell line), EMT6 (mouse breast cancer cell line), HCT116 (colorectal cancer cell line), Jurket (acute leukemia cell line), KP-4 (pancreatic cancer cell line), LL/2 (mouse lung cancer cell line), MCF7 (breast cancer cell line), […] NCI-H358 (lung cancer cell line), NCI-H727 (gastric cancer cell line), NCI-1944 (lung cancer cell line), Pan 04.03 (pancreatic cancer cell line), SK-BR-3 (breast cancer cell line), THP-1 (leukemia cell line), TOV21G (ovarian cancer cell line), U87MG (glioblastoma cell line), and UM-UC-a (bladder cancer cell line). […]
(§2) Cells were cultured according to the instructions provided by the cell supplier (Nanjing Kebai Biotechnology Co., Ltd.). […] Suspension or adherent cells were collected, and cell viability was determined using the trypan blue exclusion method, ensuring that cell viability was above 90%. […]
(In general: ATP-based viability assays read luminescence as a measure of living cells.)

In another data set the test system is AsPC-1. Put plainly: CellTiter-Glo cell proliferation inhibition, AsPC-1. As to conditions: Homo sapiens, ASPC1; AsPC-1 (pancreatic cancer cell line), 72 hours; read-out: Example IC50 (µM) AsPC-1. It is filed as cell-based.
Text: as §1, §2

Another data set concerns B16F10. Put plainly: CellTiter-Glo cell proliferation inhibition, B16F10. The class given is cell-based. As to conditions: B16-F10; B16F10 (mouse melanoma cell line), 72 hours; read-out: Example IC50 (µM) B16F10.
Text: as §1, §2

The next data set relates to EMT6. Put plainly: CellTiter-Glo cell proliferation inhibition, EMT6. The class given is cell-based. As to conditions: EMT6 (mouse breast cancer cell line), 72 hours; read-out: Example IC50 (µM) EMT6.
Text: as §1, §2

The test system of the next data set is MKN45. Put plainly: CellTiter-Glo cell proliferation inhibition, MKN45. The class given is cell-based. As to conditions: MKN-45; MKN45 (mouse B-cell lymphoma cell line), 72 hours; read-out: Example IC50 (µM) MKN45.
Text: as §1, §2

The next data set has as its system NCI-1944. Put plainly: CellTiter-Glo cell proliferation inhibition, NCI-1944. To be noted: NCI-1944 (lung cancer cell line), 72 hours; read-out: Example IC50 (µM) NCI-1944. The class given is cell-based.
Text: as §1, §2

Another data set relates to Pan 04.03. Put plainly: CellTiter-Glo cell proliferation inhibition, Pan 04.03. It is filed as cell-based. As to conditions: Pan 04.03 (pancreatic cancer cell line), 72 hours; read-out: Example IC50 (µM) Pan 04.03.
Text: as §1, §2

A further data set relates to UM-UC-a. Put plainly: CellTiter-Glo cell proliferation inhibition, UM-UC-a. The class given is cell-based. As to conditions: UM-UC-a (bladder cancer cell line), 72 hours; read-out: Example IC50 (µM) UM-UC-a.
Text: as §1, §2

The values below come from patent EP4741383A1, “COMPOUND AND USE THEREOF AS ANTI-CANCER DRUG” (Tyligand Bioscience (Shanghai) Limited, priority 2023, dated 2025).

Broadly, the IC50 is the midpoint of a concentration-inhibition curve.

SMILES strings stand for the structures.

As to `Cn1c(-c2cccc(NC(=O)C(=O)Nc3ccc(-c4ccsc4)cc3)c2)c(I)c2cc(C(=O)O)c(O)cc21` [Example 11a-1, reference compound], the oral bioavailability in data set [1] was 0.07%.

As to `O=C(Nc1ccc(-c2csc(CO)c2)cc1)C(=O)Nc1ccc(-c2cc3cc(F)c(-c4nnn[nH]4)cc3n2C2CCC2)cc1` [Example 1], the IC50 was found to be 0.128 µM in the data set on A2780; 0.121 µM in the data set with AsPC-1; 0.142 µM in the data set with B16F10; 0.131 µM in the data set with EMT6; 0.326 µM in the data set with MKN45; 0.112 µM with NCI-1944. The IC50 was determined as 0.34 µM in the data set with Pan 04.03 and 0.193 µM with UM-UC-a.
